Measurements: the supplement of paper PMC7695840
pIC50: −log10 of the molar value. Counter-ions that a name gives are not always drawn.

Legend:
[1] = system: Staphylococcus aureus MW2 (mecA+); assay: IC50 (growth, competition assay); settings: cefoxitin: subinhibitory
Summary of the method: (§1)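 Signals from DsRed (540/590) and GFP (485/520) were scaled on every plate between single-strain control medians, with No Treatment then set to 0.5. The cells were a 1:1 mix of pre-induced fluorescent S. aureus MW2 strains with and without the resistance gene, grown unshaken for 20 h at 37 °C and 90% humidity in LB in 1536-well plates under a subinhibitory drug dose set each day. Each strain's IC50 was defined as the dose halving the No Treatment signal, or the maximal signal.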

[2] = system: Staphylococcus aureus MW2 delta-mecA (mecA-); assay: IC50 (growth, competition assay); settings: cefoxitin: subinhibitory
Summary of the method: as §1

Structure (SMILES) | pIC50 ([1]; fluorescent label: DsRed) | pIC50 ([1]; fluorescent label: GFP) | pIC50 ([2]; fluorescent label: DsRed) | pIC50 ([2]; fluorescent label: GFP)
O=C1[C@H](CC[C@H](O)c2ccc(F)cc2)[C@@H](c2ccc(O)cc2)N1c1ccc(F)cc1 [ZETIA] | 3.99 | 3.98 | 4.59 | 4.61
CO/N=C(\C(=O)N[C@@H]1C(=O)N2C(C(=O)O)=C(COC(C)=O)CS[C@H]12)c1csc(N)n1 [Cefotaxime sodium] | > 5.01 | > 5.01 | > 5.01 | > 5.01
O=C(O)c1cn(C2CC2)c2cc(N3CCNCC3)c(F)cc2c1=O [CIPRO] | > 5.01 | > 5.01 | > 5.01 | > 5.01
Oc1c(I)cc(I)c2cccnc12 [IOQUIN] | 4.68 | 4.75 | > 5.01 | > 5.01
COC(=O)c1c(C)c2c(c(C)c1O)OC(=O)c1c(C)c(Cl)c(O)c(Cl)c1O2 [LEOIDIN] | > 5.01 | > 5.01 | > 5.01 | > 5.01
Cc1cc(N)c2ccccc2[n+]1CCCCCCCCCC[n+]1c(C)cc(N)c2ccccc21 [Dequalinium chloride hydrate] | > 5.01 | > 5.01 | > 5.01 | > 5.01
CC(=O)Oc1c2c(c(CC=C(C)C)c3c1C(=O)C1=C[C@@H]4CC5C(C)(C)OC(C/C=C(\C)C(=O)O)(C4=O)[C@@]15O3)OC(C)(CCC=C(C)C)C=C2 (stereo partly specified) [ACETYL ISOGAMBOGIC ACID] | 4.87 | 4.77 | > 5.01 | > 5.01
C=C1c2cccc(O)c2C(=O)C2=C(O)[C@]3(O)C(=O)C(C(N)=O)=C(O)[C@@H](N(C)C)[C@@H]3[C@@H](O)[C@H]12 [RONDOMYCIN] | > 5.01 | > 5.01 | > 5.01 | > 5.01
CCOc1nc2cccc(C(=O)OC(C)OC(=O)OC3CCCCC3)c2n1Cc1ccc(-c2ccccc2-c2nn[nH]n2)cc1 (stereo unspecified) [ATACAND] | 5.00 | 4.83 | > 5.01 | > 5.01
COc1ccc(CCN(C)CCCOc2ccc(S(=O)(=O)c3c(C(C)C)n(C)c4ccccc34)cc2)cc1OC | 4.83 | 4.83 | > 5.01 | > 5.01
O=c1[nH]cc(F)c(=O)[nH]1 [CARAC] | > 5.01 | > 5.01 | > 5.01 | > 5.01
CSc1ccc2c(c1)C(N1CCN(C)CC1)Cc1ccccc1S2 (stereo unspecified) [METITEPINE MESYLATE] | 4.24 | 4.07 | 4.51 | 4.75
CN(CC(=O)N(Cc1ccc(C2CCCCC2)cc1)c1ccc(C(=O)O)cc1)S(=O)(=O)c1c(F)c(F)c(F)c(F)c1F [SH-4-54] | > 5.01 | 4.94 | > 5.01 | > 5.01
CO/N=C(\C(=O)N[C@@H]1C(=O)N2C(C(=O)O)=C(CSc3nnnn3C)CS[C@H]12)c1csc(N)n1 [CEFMAX] | > 5.01 | > 5.01 | > 5.01 | > 5.01
Cc1onc(-c2ccccc2)c1C(=O)N[C@@H]1C(=O)N2[C@@H]1SC(C)(C)[C@@H]2C(=O)O [BACTOCILL] | > 5.01 | > 5.01 | > 5.01 | > 5.01
CC[C@H]1OC(=O)[C@H](C)[C@@H](O[C@H]2C[C@@](C)(OC)[C@@H](O)[C@H](C)O2)[C@H](C)[C@@H](O[C@@H]2O[C@H](C)C[C@H](N(C)C)[C@H]2O)[C@](C)(O)C[C@@H](C)[C@@H]2N[C@@H](COCCOC)O[C@H]([C@H]2C)[C@]1(C)O [DYNABAC] | 4.67 | 4.67 | > 5.01 | > 5.01
CC1(C)C(=O)N(CCN2CCC(C(=O)c3ccc(F)cc3)CC2)c2ccccc21 | 4.41 | 4.01 | 4.27 | 4.79
C[C@H]1[C@H](C)CC[C@]2(C(=O)O)CC[C@]3(C)C(=CC[C@@H]4[C@@]5(C)C[C@@H](O)[C@H](O)[C@@](C)(CO)[C@@H]5CC[C@]43C)[C@H]12 [ASIATIC ACID] | 3.96 | < 3.82 | 3.91 | 3.94
CC1(C)S[C@@H]2[C@H](NC(=O)C(C(=O)O)c3ccccc3)C(=O)N2[C@H]1C(=O)O (stereo partly specified) [Carbenicillin disodium] | 4.68 | 4.38 | > 5.01 | > 5.01
Cc1onc(-c2ccccc2Cl)c1C(=O)N[C@@H]1C(=O)N2[C@@H]1SC(C)(C)[C@@H]2C(=O)O [Cloxacillin sodium] | > 5.01 | > 5.01 | > 5.01 | > 5.01
COc1cccc(C2(O)CCCCC2CN(C)C)c1 (stereo unspecified) [ULTRAM] | 3.88 | 3.87 | 3.99 | 4.22
O=C(NC[C@H]1CN(c2ccc(N3CCOCC3=O)cc2)C(=O)O1)c1ccc(Cl)s1 [XARELTO] | > 5.01 | > 5.01 | > 5.01 | > 5.01
Cc1cc(-n2c(=O)[nH]c(=O)n(C)c2=O)ccc1Oc1ccc(SC(F)(F)F)cc1 [BAYCOX] | 4.15 | 3.95 | 4.22 | 4.49
Cc1ncc(-c2ccnc(Nc3ccc(S(C)(=O)=O)cc3)n2)n1C(C)C [AZD5438] | < 3.82 | < 3.82 | 4.99 | > 5.01
O=C1NC(=O)[C@@]2(CCOc3ccc(F)cc32)N1 [Sorbinil] | > 5.01 | > 5.01 | > 5.01 | > 5.01
O=C(O)Cc1cc(I)c(Oc2ccc(O)c(I)c2)c(I)c1 [TRIAC] | 4.90 | 4.64 | 4.95 | > 5.01
CO/N=C(\C(=O)N[C@@H]1C(=O)N2C(C(=O)O)=C(CSC(=O)c3ccco3)CS[C@H]12)c1csc(N)n1 [EXCENEL] | > 5.01 | > 5.01 | > 5.01 | > 5.01
Clc1ccc(COC(Cn2ccnc2)c2ccc(Cl)cc2Cl)c(Cl)c1 (stereo unspecified) [MONISTAT] | > 5.01 | > 5.01 | > 5.01 | > 5.01
O=c1c(O)c(-c2ccc(O)c(O)c2)oc2cc(O)cc(O)c12 [Quercetin dihydrate] | 4.24 | 4.25 | 4.73 | 4.98
